# According to US6797720B2, “1,3,4-oxadiazoline derivative and an agent comprising its derivative as active ingredient” (ONO Pharmaceutical Co., Ltd., priority 1999, dated 2004):
# What was measured:
# Format in all cases: biochemical
# [1] = target: T1, cathepsin K (Homo sapiens, UniProt P43235); test: Measurement of cathepsin K inhibitory activity; conditions: Dixon plot, pH 5.5, 37° C.
# T1 sequence (P43235 115-329): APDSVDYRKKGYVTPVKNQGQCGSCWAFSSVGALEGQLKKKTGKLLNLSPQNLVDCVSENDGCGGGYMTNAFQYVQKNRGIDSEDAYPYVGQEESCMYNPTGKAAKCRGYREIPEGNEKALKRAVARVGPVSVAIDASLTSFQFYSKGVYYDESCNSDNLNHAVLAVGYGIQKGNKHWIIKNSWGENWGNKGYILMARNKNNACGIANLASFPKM
# Method: (i) Measurement of Cathepsin K Inhibitory Activity
# Cathepsin K enzyme reaction buffer (50 mmol/L 2-(N-morpholino)ethanesulfonate, 2 mmol/L ethylenediamine tetraacetate (EDTA) and 4 mmol/L dithiothreitol (DTT) were mixed to adjust to pH 5.5) (65 μL), cysteine protease inhibitor solution (5 μL) of several concentrations, synthesized substrate (t-butyloxycarbonyl-L-alanyl-glycyl-L-prolyl-L-arginine-4-me thyl-chromanyl-7-amide) solution (20 μL) of several concentrations and cathepsin K enzyme solution (10 μL) were mixed and the increase of fluorescence intensity when reacted at 37° C. was measured (λex(excitation wavelength)355 nm, λem (fluorescence wavelength) 460 nm). As to the substrate and the compound of the present invention, enzyme reactions were carried out in combination of several appropriate concentrations, Dixon plotting was prepared, to define the absolute value of X-coordinate of the intersection point of the graph as Ki value.
# [2] = target: cathepsin B (Homo sapiens, UniProt P07858); test: Measurement of cathepsin B inhibitory activity
# Method: (ii) Measurement of Cathepsin B Inhibitory Activity
# Synthesized substrate of several concentrations (carbobenzoxy-L-arginyl-L-arginine-4-methyl-chromanyl-7-amide or carbobenzoxy-L-phenylalanyl-L-arginine-4-methyl-chromanyl-7-amide) solution (10 μL), cysteine protease inhibitor solution of several concentrations (10 μL), cathepsin B enzyme reaction buffer (mixture of 400 mmol/L in acetic acid, 4 mmol/L EDTA, 8 mmol/L DDT to adjust to pH 5.5) 70 μL and cathepsin B enzyme solution 10 μL were mixed and the increase of fluorescence intensity was measured (λex=355 nm, λem=460 nm) when reacted at 37° C.
# [3] = target: cathepsin S (Homo sapiens, UniProt P25774); test: Measurement of cathepsin S inhibitory activity
# Chain of cathepsin S (P25774 115-331, species assumed): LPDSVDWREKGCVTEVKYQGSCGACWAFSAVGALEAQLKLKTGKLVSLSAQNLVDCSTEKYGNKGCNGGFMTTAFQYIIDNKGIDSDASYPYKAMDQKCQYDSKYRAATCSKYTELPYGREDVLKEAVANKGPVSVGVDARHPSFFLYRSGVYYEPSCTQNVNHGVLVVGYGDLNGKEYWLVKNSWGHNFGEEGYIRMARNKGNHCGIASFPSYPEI
# Method: (iii) Measurement of Cathepsin S Inhibitory Activity
# Synthesized substrate of several concentrations (carbobenzoxy-L-leucyl-L-leucyl-L-arguinine-4-methyl-chroman yl-7-amide) solution (10 μL), cysteine protease inhibitor solution (5 μL) of several concentrations, cathepsin S enzyme reaction buffer (100 mmol/L sodium phosphate, 2 mmol/L EDTA, 2 mmol/L DTT were mixed to adjust to pH 6.5) (75 μL) and cathepsin S enzyme solution (10 μL) were mixed and the increase of fluorescence intensity was measured (λex=355 nm, λem=460 nm) when reacted at 37° C.
# [4] = target: cathepsin L (Homo sapiens, UniProt P07711); test: Measurement of cathepsin L inhibitory activity
# Chain of cathepsin L (P07711 114-333, species assumed): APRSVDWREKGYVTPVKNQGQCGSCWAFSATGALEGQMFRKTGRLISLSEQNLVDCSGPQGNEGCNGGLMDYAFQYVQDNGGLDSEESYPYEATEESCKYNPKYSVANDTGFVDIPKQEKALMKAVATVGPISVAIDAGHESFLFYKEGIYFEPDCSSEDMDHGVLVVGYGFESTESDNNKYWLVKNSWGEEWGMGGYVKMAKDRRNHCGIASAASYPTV
# Method: (iv) Measurement of Cathepsin L Inhibitory Activity
# Synthesized substrate of several concentrations (carbobenzoxy-L-phenylalanyl-L-arguine-4-methyl-chromanyl-7-amide or L-prolyl-L-phenylalanyl-L-arguinine-4-methyl-chromanyl-7-amide) solution (5 μL), cysteine protease inhibitor solution (5 μL) of several concentrations, cathepsin L enzyme reaction buffer (400 mmol/L acetic acid, 4 mmol/L EDTA, 8 mmol/L DTT were mixed to adjust to pH 5.5) 80 μL and cathepsin L enzyme solution (10 μL) were mixed and the increase of fluorescence intensity was measured (λex=355 nm, λem=460 nm) when reacted at 37° C.
Ki [1],inhibition at 1 µM [2],inhibition at 1 µM [3],inhibition at 1 µM [4],SMILES
0.013 µM,97%,99%,100%,"CC(C)C[C@H](NC(=O)OCc1ccccc1)C(=O)N[C@@H](CC(C)C)C(=O)c1n[nH]c(=O)o1 [Example 1 (1), (2S)-N-[(2S)-4-methyl-1-oxo-1-(2-oxo-1,3,4-oxadiazolin-5-yl)-2-pentyl]-4-methyl-2-(benzyloxycarbonylamino)pentanamide]"
0.086 µM,,,,CC(C)C[C@H](NC(=O)[C@@H]1CCCC[C@@H]1NC(=O)c1ccccc1)C(=O)c1n[nH]c(=O)o1 [example 1]
